# Results: patent US20260297109A1, “COMPOUNDS AS SUMO ACTIVATING ENZYME INHIBITORS” (WIGEN BIOMEDICINE TECHNOLOGY (SHANGHAI) CO., LTD., priority 2022, published 2026)
# Target: T1, SAE (Homo sapiens, UniProt Q9UBT2)
# T1 construct: endogenous in cells; host or cells: HCT116
# T1 sequence (Q9UBT2 1-640): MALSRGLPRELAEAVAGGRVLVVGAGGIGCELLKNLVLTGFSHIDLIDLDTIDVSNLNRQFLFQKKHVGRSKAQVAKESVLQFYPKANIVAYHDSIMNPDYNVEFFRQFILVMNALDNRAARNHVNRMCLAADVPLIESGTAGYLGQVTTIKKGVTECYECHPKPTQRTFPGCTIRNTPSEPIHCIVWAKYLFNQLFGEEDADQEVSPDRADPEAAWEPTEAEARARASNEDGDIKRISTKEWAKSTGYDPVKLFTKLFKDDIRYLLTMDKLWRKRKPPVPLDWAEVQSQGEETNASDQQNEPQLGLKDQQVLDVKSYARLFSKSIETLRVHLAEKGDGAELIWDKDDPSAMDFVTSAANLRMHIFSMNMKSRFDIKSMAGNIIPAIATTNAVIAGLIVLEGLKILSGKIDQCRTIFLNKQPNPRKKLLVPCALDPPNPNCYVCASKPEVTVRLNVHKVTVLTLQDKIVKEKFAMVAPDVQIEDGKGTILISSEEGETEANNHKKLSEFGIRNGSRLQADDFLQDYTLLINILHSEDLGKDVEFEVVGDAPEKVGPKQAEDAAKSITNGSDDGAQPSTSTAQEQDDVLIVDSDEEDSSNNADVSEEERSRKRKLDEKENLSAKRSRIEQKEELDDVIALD
# T1 sequence (Q9UBE0 1-346): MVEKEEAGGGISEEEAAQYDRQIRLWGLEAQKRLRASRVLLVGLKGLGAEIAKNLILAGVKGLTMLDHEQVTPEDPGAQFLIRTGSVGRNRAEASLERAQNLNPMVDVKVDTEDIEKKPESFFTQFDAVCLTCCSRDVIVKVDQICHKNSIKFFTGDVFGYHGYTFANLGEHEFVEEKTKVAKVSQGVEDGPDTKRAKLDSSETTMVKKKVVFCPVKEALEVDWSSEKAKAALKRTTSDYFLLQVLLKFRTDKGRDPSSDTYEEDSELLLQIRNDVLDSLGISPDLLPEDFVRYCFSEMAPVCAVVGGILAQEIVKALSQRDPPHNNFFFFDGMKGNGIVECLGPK
# Assay: SUMO IF: in vitro inhibitory activity assay against SAE in HCT116 cells (SUMO-2/3 immunofluorescence)
# Format: cell-based
# Conditions: class symbols, 6 h at 37° C.
# Method: Biological Example 1. In Vitro Inhibitory Activity Assay of Compounds of the Present Disclosure Against SAE
# HCT116 cells were seeded into a 96-well black transparent bottom plate at about 20000/well with 90 μL per well. The cells were incubated at 37° C. overnight for 24 h. The test compounds were 10-fold diluted to give a final concentration, and 10 μL of the diluted compounds was added to each well of the cell culture plate. The mixture was incubated at 37° C. for 6 h. The cells were then washed gently, the culture medium was discarded, and the cells were washed once with 200 μL of 0.1% PBST. 50 μL of 4% PFA was added to each well, and the cells were immobilized at room temperature for 20 min, and then washed with PBS 2-3 times. 50 μL of 0.2% Triton X-100 was added to each well, and the cells were left to stand at room temperature for 15 min and washed with 0.1% PBST 3 times. 100 μL of 3% BSA (0.6 g BSA+20 mL PBS) was added to each well, and the mixture was blocked at 37° C. for 30 min. After the blocking was completed, the liquid was removed and a primary antibody (SUMO-2/3 (18H8) Rabbit mAb, 1:400 dilution) was prepared with 1% BSA. 30 μL of the diluted primary antibody was added to each well, and the mixture was incubated at 4° C. overnight. The cells were washed 3 times with 200 μL of 0.1% PBST. A FITC secondary antibody (Fluorescein (FITC)-conjugated Affinipure Goat Anti-Rabbit IgG (H+L), 1:300 dilution) was further prepared with 1% BSA, and 40 μL of the diluted secondary antibody was added to each well. The mixture was incubated at room temperature in the dark for 2 h, and then the cells were washed 4 times with 0.1% PBST. The fluorescence signal of the sample was detected and compared to the DMSO group, and the inhibition rate and IC50 were calculated.
row,SMILES,IC50 [nM]
1,NS(=O)(=O)OC[C@H]1[C@H](F)[C@@H](Nc2ncncc2C(=O)c2cc3c(s2)CCCC32NCCc3ccccc32)C[C@@H]1O (stereo partly shown) [Compound 85],50 to 200
2,NS(=O)(=O)OC[C@H]1[C@H](F)[C@@H](Nc2ncncc2C(=O)c2cc3c(s2)CCC[C@@]32NCCc3ccccc32)C[C@@H]1O [Compound 86],> 200
3,NS(=O)(=O)OC[C@H]1[C@H](F)[C@@H](Nc2ncncc2C(=O)c2cc3c(s2)CCC[C@]32NCCc3ccccc32)C[C@@H]1O [Compound 87],≤ 50
4,NS(=O)(=O)OC[C@H]1[C@H](F)[C@@H](Nc2ncncc2C(=O)c2cc3c(s2)CCCC32NCCc3ccc(Cl)cc32)C[C@@H]1O (stereo partly shown) [Compound 88],≤ 50
5,NS(=O)(=O)OC[C@H]1[C@H](F)[C@@H](Nc2ncncc2C(=O)c2cc3c(s2)CCCC32NCCc3ccc(F)cc32)C[C@@H]1O (stereo partly shown) [Compound 91],50 to 200
6,N#Cc1ccc2c(c1)C1(CCCc3sc(C(=O)c4cncnc4N[C@H]4C[C@H](O)[C@@H](COS(N)(=O)=O)[C@@H]4F)cc31)NCC2 (stereo partly shown) [Compound 94],50 to 200
7,N#Cc1ccc2c(c1)[C@]1(CCCc3sc(C(=O)c4cncnc4N[C@H]4C[C@H](O)[C@@H](COS(N)(=O)=O)[C@@H]4F)cc31)NCC2 [Compound 95],> 200
8,N#Cc1ccc2c(c1)[C@@]1(CCCc3sc(C(=O)c4cncnc4N[C@H]4C[C@H](O)[C@@H](COS(N)(=O)=O)[C@@H]4F)cc31)NCC2 [Compound 96],≤ 50
9,NS(=O)(=O)OC[C@H]1[C@H](F)[C@@H](Nc2ncncc2C(=O)c2cc3c(s2)COCC32NCCc3ccccc32)C[C@@H]1O (stereo partly shown) [Compound 97],> 200
10,NS(=O)(=O)OC[C@H]1[C@H](F)[C@@H](Nc2ncncc2C(=O)c2cc3c(s2)COC[C@@]32NCCc3ccccc32)C[C@@H]1O [Compound 98],> 200
11,NS(=O)(=O)OC[C@H]1[C@H](F)[C@@H](Nc2ncncc2C(=O)c2cc3c(s2)COC[C@]32NCCc3ccccc32)C[C@@H]1O [Compound 99],50 to 200
12,NS(=O)(=O)OC[C@H]1[C@H](F)[C@@H](Nc2ncncc2C(=O)c2cc3c(s2)COCC32NCCc3ccc(F)cc32)C[C@@H]1O (stereo partly shown) [Compound 100],50 to 200
13,NS(=O)(=O)OC[C@H]1[C@H](F)[C@@H](Nc2ncncc2C(=O)c2cc3c(s2)COC[C@@]32NCCc3ccc(F)cc32)C[C@@H]1O [Compound 101],> 200
14,NS(=O)(=O)OC[C@H]1[C@H](F)[C@@H](Nc2ncncc2C(=O)c2cc3c(s2)COC[C@]32NCCc3ccc(F)cc32)C[C@@H]1O [Compound 102],50 to 200
15,NS(=O)(=O)OC[C@H]1[C@H](F)[C@@H](Nc2ncncc2C(=O)c2cc3c(s2)COCC32NCCc3ccc(Cl)cc32)C[C@@H]1O (stereo partly shown) [Compound 103],50 to 200
16,Cc1ccc2c(c1)C1(CCCc3sc(C(=O)c4cncnc4N[C@H]4C[C@H](O)[C@@H](COS(N)(=O)=O)[C@@H]4F)cc31)NCC2 (stereo partly shown) [Compound 106],50 to 200
17,NS(=O)(=O)OC[C@H]1[C@H](F)[C@@H](Nc2ncncc2C(=O)c2cc3c(s2)CCCC32NCCc3ccc(C4CC4)cc32)C[C@@H]1O (stereo partly shown) [Compound 107],50 to 200
18,COc1ccc2c(c1)C1(CCCc3sc(C(=O)c4cncnc4N[C@H]4C[C@H](O)[C@@H](COS(N)(=O)=O)[C@@H]4F)cc31)NCC2 (stereo partly shown) [Compound 108],> 200

row,SMILES,IC50 [nM]
1,NS(=O)(=O)OC[C@H]1[C@H](F)[C@@H](Nc2ncncc2C(=O)c2cc3c(s2)CCCC32NCCc3ccc(C(F)(F)F)cc32)C[C@@H]1O (stereo partly shown) [Compound 109],50 to 200
2,NS(=O)(=O)OC[C@H]1[C@H](F)[C@@H](Nc2ncncc2C(=O)c2cc3c(s2)CCCC32NCCc3cc(F)c(F)cc32)C[C@@H]1O (stereo partly shown) [Compound 110],50 to 200
3,NS(=O)(=O)OC[C@H]1[C@H](F)[C@@H](Nc2ncncc2C(=O)c2cc3c(s2)CCCC32NCCc3cc(F)c(Cl)cc32)C[C@@H]1O (stereo partly shown) [Compound 111],≤ 50
4,NS(=O)(=O)OC[C@H]1[C@H](F)[C@@H](Nc2ncncc2C(=O)c2cc3c(s2)CCCC32NCCc3cc(Cl)c(Cl)cc32)C[C@@H]1O (stereo partly shown) [Compound 112],50 to 200
5,Cc1cc2c(cc1Cl)C1(CCCc3sc(C(=O)c4cncnc4N[C@H]4C[C@H](O)[C@@H](COS(N)(=O)=O)[C@@H]4F)cc31)NCC2 (stereo partly shown) [Compound 113],50 to 200
6,N#Cc1cc2c(cc1Cl)C1(CCCc3sc(C(=O)c4cncnc4N[C@H]4C[C@H](O)[C@@H](COS(N)(=O)=O)[C@@H]4F)cc31)NCC2 (stereo partly shown) [Compound 114],50 to 200
7,COc1cc2c(cc1Cl)C1(CCCc3sc(C(=O)c4cncnc4N[C@H]4C[C@H](O)[C@@H](COS(N)(=O)=O)[C@@H]4F)cc31)NCC2 (stereo partly shown) [Compound 115],50 to 200
8,NS(=O)(=O)OC[C@H]1[C@H](F)[C@@H](Nc2ncncc2C(=O)c2cc3c(s2)CCCC32NCCc3cc(F)c(Cl)c(F)c32)C[C@@H]1O (stereo partly shown) [Compound 116],50 to 200
9,NS(=O)(=O)OC[C@H]1[C@H](F)[C@@H](Nc2ncncc2C(=O)c2cc3c(s2)CCCC32NCCc3cc(Cl)c(F)cc32)C[C@@H]1O (stereo partly shown) [Compound 117],50 to 200
10,NS(=O)(=O)OC[C@H]1[C@H](F)[C@@H](Nc2ncncc2C(=O)c2cc3c(s2)CCCC32NCCc3ccncc32)C[C@@H]1O (stereo partly shown) [Compound 118],50 to 200
11,NS(=O)(=O)OC[C@H]1[C@H](F)[C@@H](Nc2ncncc2C(=O)c2cc3c(s2)CCCC32NCCc3cc(Cl)ncc32)C[C@@H]1O (stereo partly shown) [Compound 119],50 to 200
12,NS(=O)(=O)OC[C@H]1[C@H](F)[C@@H](Nc2ncncc2C(=O)c2cc3c(s2)C=CCC32NCCc3ccc(Cl)cc32)C[C@@H]1O (stereo partly shown) [Compound 120],≤ 50
13,NS(=O)(=O)OC[C@H]1[C@H](F)[C@@H](Nc2ncncc2C(=O)c2cc3c(s2)CC=CC32NCCc3ccc(Cl)cc32)C[C@@H]1O (stereo partly shown) [Compound 121],≤ 50
14,NS(=O)(=O)OC[C@H]1[C@H](F)[C@@H](Nc2ncncc2C(=O)c2cc3c(s2)OCCC32NCCc3ccc(Cl)cc32)C[C@@H]1O (stereo partly shown) [Compound 122],50 to 200
15,NS(=O)(=O)OC[C@H]1[C@H](F)[C@@H](Nc2ncncc2C(=O)c2cc3c(s2)CCCC32NCC3(CC3)c3ccc(Cl)cc32)C[C@@H]1O (stereo partly shown) [Compound 123],50 to 200
16,NS(=O)(=O)OC[C@H]1[C@H](F)[C@@H](Nc2ncncc2C(=O)c2cc3c(s2)CCCC32NC3(CC3)Cc3ccc(Cl)cc32)C[C@@H]1O (stereo partly shown) [Compound 124],50 to 200
17,NS(=O)(=O)OC[C@H]1[C@H](F)[C@@H](Nc2ncncc2C(=O)c2cc3c(s2)CCCC32NCC(=O)c3ccc(Cl)cc32)C[C@@H]1O (stereo partly shown) [Compound 125],50 to 200
18,NS(=O)(=O)OC[C@H]1[C@H](F)[C@@H](Nc2ncncc2C(=O)c2cc3c(s2)CCCC32OCCc3ccc(Cl)cc32)C[C@@H]1O (stereo partly shown) [Compound 126],≤ 50

# Same assay, conditions: numeric values, 6 h at 37° C.
row,SMILES,IC50 [nM]
1,NS(=O)(=O)OC[C@H]1[C@H](F)[C@@H](Nc2ncncc2C(=O)c2cc3c(s2)CCC[C@@]32NCCc3ccc(Cl)cc32)C[C@@H]1O [Compound 89],> 1000
2,NS(=O)(=O)OC[C@H]1[C@H](F)[C@@H](Nc2ncncc2C(=O)c2cc3c(s2)CCC[C@@]32NCCc3ccc(F)cc32)C[C@@H]1O [Compound 92],> 1000
3,NS(=O)(=O)OC[C@H]1[C@H](F)[C@@H](Nc2ncncc2C(=O)c2cc3c(s2)COC[C@@]32NCCc3ccc(Cl)cc32)C[C@@H]1O [Compound 104],> 1000
4,NS(=O)(=O)OC[C@H]1[C@H](F)[C@@H](Nc2ncncc2C(=O)c2cc3c(s2)COC[C@]32NCCc3ccc(Cl)cc32)C[C@@H]1O [Compound 105],79.3
